# In US20100063089A1, “SUCCINATE SALT OF 2-((4-(1-METHYL-4-PYRIDIN-4-YL)-1H-PYRAZOL-3-YL)PHENOXY)METHYL)QUINOLINE” (PFIZER INC, priority 2006, published 2010):
# Legend:
# [1] = solid-state properties for formulation (deliquescence, hygroscopicity); assay type: physicochemical; conditions: solid salt
# [2] = isothermal moisture sorption test; assay type: physicochemical; conditions: at 90±2% relative humidity; isothermal 25.1±0.1° C.; conducted from approximately 1% to 90% (±2%) humidity
# Protocol: In another embodiment, the succinate salt increases in weight by less than 0.5% at 90±2% relative humidity in an isothermal (25.1±0.1° C.) moisture sorption test conducted from approximately 1% to 90% (±2%) humidity.
compound,measurement,setting,value
"Cn1cc(-c2ccncc2)c(-c2ccc(OCc3ccc4ccccc4n3)cc2)n1.O=C(O)CCC(=O)O [succinate salt, succinate salt of 2-((4-(1-methyl-4-(pyridin-4-yl)-1H-pyrazol-3-yl)phenoxy)methyl)quinoline]",deliquescence,[1],not deliquescent
same,hygroscopicity,[1],non-hygroscopic
same,increase in weight in moisture sorption test,[2],less than 0.5%
